According to patent EP1914236A1 (Ortho-McNeil Pharmaceutical, Inc., priority 2002, dated 2003):

Columns and labels:
[1] = molecular target: T1, CHO-hB2 cell membranes (Homo sapiens, UniProt P30411); experiment: [35S]GTPγS Binding Assay in CHO-hB2 Cell Membranes; type: biochemical; conditions: for Functional Activity (% Basal): number in parentheses, bradykinin-stimulated [35S]GTPγS binding, test concentration not given; for Functional Activity: word part of the cell, effect on bradykinin-stimulated [35S]GTPγS binding
T1 construct: purchased Receptor Biology, Inc. (Baltimore, MD); host or cells: CHO-hB2 cells (membranes)
T1 sequence (P30411 1-391): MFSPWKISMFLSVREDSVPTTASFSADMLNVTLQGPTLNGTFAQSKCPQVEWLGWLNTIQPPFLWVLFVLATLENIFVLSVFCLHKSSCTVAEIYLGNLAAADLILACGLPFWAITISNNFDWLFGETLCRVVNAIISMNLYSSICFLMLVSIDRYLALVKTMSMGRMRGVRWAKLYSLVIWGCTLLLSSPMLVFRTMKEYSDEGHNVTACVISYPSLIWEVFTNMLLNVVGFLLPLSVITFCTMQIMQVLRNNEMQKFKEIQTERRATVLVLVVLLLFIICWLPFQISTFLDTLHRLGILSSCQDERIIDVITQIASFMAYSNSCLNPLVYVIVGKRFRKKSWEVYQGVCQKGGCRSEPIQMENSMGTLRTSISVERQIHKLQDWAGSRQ
Method: CHO-hB2 cell membranes were purchased from Receptor Biology, Inc. (Baltimore,MD). 10 mg/mL of membrane protein was suspended in 10 mM TRIS-HC pH 7.2, 2 mM EDTA, 10% sucrose.
Membranes were added into 15 mL ice cold binding assay buffer. The assay buffer contained 50 mM HEPES, pH 7.6, 5 mM MgCl2, 100 mM NaCl, 1 mM DTT and 1 mM EDTA. The membrane suspension was homogenized twice with a Polytron and centrifuged at 3000 rpm for 10 min. The supernatant was then centrifuged at 18,000 rpm for 20 min. The pellet was saved in a tube and resuspended.
The pellet membranes (40 µg/mL) were preincubated with SPA (scintillation proximity assay) beads (20 mg/mL) at 25C° for 45 min in the assay buffer. The SPA beads (5 mg/mL) coupled with membranes (10 µg/mL) were then incubated with 0.5 nM [^35S]GTPγS in the same HEPES buffer containing 50 µM GDP in total volume of 200 µL. Bradykinin was used to stimulate [^35S]GTPγS binding. Varying concentrations of drugs were incubated with bradykinin to inhibit bradykinin-stimulated [^35S]GTPγS binding. The basal binding was tested in the absence of bradykinin and no specific binding was tested in the present 10 µM unlabeled GTPγS. The radioactivity was quantified on a Packard Top Count, and calculated. % of Basal = (stimulated binding-non specific binding)/(basal binding-non specific binding) × 100. [formula]

[2] = molecular target: T2, human B2 bradykinin receptors (Homo sapiens, UniProt P30411); experiment: Bradykinin B2 (BK2) Receptor Binding Assay; conditions: membranes of CHO-K1 cells transfected with human B2 bradykinin receptors; ~0.25 nM [3H]NPC17731; 60 min at 25°C
T2 construct: purchased Receptor Biology, Inc. (Baltimore, MD); host or cells: CHO-K1 cells transfected with the human B2 receptor (membranes)
T2 sequence (P30411 1-391): T1 sequence (P30411 1-391)
Method: Cell membranes of CHO-K1 cells transfected with human B2 bradykinin receptors (CH)-hB2) were purchased from Receptor Biology, Inc. (Baltimore,MD).
Samples were harvested on a Brandel Cell Harvester on to Wallac filtermat B sheets (96 sample format), and washed three times with 2 mL cold HEPES-buffer (10 mM, pH 7.5), and dried in a microwave oven.
The data were used to calculate either the % inhibition compared to control binding (when only a single concentration of test compound was evaluated) or a Ki value (when a range of concentrations were tested). Background was subtracted from mean cpm values and % inhibition was calculated as: [(total dpm-test compound dpm)/(total dpm-nonspecific dpm)]x100. Kd and Ki values were calculated using GraphPad PRISM data analysis program.

Functional Activity (% Basal) [1] [% Basal]	Functional Activity [1]	Ki [2] [nM]	SMILES
57	Antagonist	304	Cc1ccc2cccc(OCc3c(C)ccc(N(C)C(=O)CCc4ccc(C(=O)c5cccnc5)n4C)c3C)c2n1 [Compound 84]
50	Antagonist	450	Cc1ccc2cccc(OCc3c(C)ccc(N(C)C(=O)CCc4ccc(C(=O)c5ccncc5)n4C)c3C)c2n1 [Compound 82]
61	Antagonist	71	COc1ccc(C(=O)c2ccc(CC(=O)N(C)c3ccc(Cl)c(COc4cccc5ccc(C)nc45)c3Cl)[nH]2)cc1 [Compound 5]
1	No effect	29	CCCCn1c(CC(=O)N(C)c2ccc(Cl)c(COc3cccc4ccc(C)nc34)c2Cl)ccc1C(=O)c1ccc(C#N)cc1 [Compound 10]
35	Antagonist	86.4	Cc1ccc2cccc(OCc3c(Cl)cc(Cl)c(N(C)C(=O)Cc4ccc(C(=O)c5ccc(Cl)nc5)n4C)c3Cl)c2n1 [Compound 117, 2-[5-(6-Chloro-pyridine-3-carbonyl)-1-methyl-1H-pyrrol-2-yl]-N-methyl-N-[2,4,6-trichloro-3-(2-methyl-quinolin-8-yloxymethyl)-phenyl]-acetamide]
–	–	4180	Cc1ccc2cccc(OCc3c(Cl)ccc(N(C)C(=O)Cc4ccc(C(=O)c5ccc(Cl)s5)n4C)c3Cl)c2n1 [Compound 25]
–	–	17600	Cc1ccc2cccc(OCc3cccc(N(C)C(=O)Cc4ccc(C(=O)c5cccc(C#N)c5)n4C)c3Cl)c2n1 [Compound 116, N-[2-Chloro-3-(2-methyl-quinolin-8-yloxymethyl)-phenyl]-2-[5-(3-cyanobenzoyl)-1-methyl-1 H-pyrrol-2-yl]-N-methyl-acetamide]
–	–	508	Cc1ccc2cccc(OCc3c(Cl)ccc(N(C)C(=O)Cc4ccc(C(=O)CN(C)c5ccccn5)n4C)c3Cl)c2n1 [Compound 49]
–	–	14000	COc1ccc(C(=O)c2ccc(CC(=O)Nc3ccc(Cl)c(COc4cccc5ccc(C)nc45)c3Cl)n2C)cc1 [Compound 119]
–	–	583	Cc1ccc2cccc(OCc3c(Cl)ccc(N(C)C(=O)Cc4ccc(C(=O)c5ccc6c(c5)OCO6)n4C)c3Cl)c2n1 [Compound 50]
–	–	143	CCOc1ccc(C(=O)c2ccc(CCC(=O)N(C)c3ccc(Cl)c(COc4cccc5ccc(C)nc45)c3Cl)n2C)cn1 [Compound 87]
–	–	1050	Cc1ccc2cccc(OCc3c(Cl)ccc(N(C)C(=O)Cc4ccc(C(=O)c5ccc(Br)cc5)n4C)c3Cl)c2n1 [Compound 35]
–	–	309	CCOc1ccc(C(=O)c2ccc(CCC(=O)N(C)c3ccc(C)c(COc4cccc5ccc(C)nc45)c3C)n2C)cn1 [Compound 86]

The remaining lines, values behind:

SMILES	Functional Activity (% Basal) [1] [% Basal]	Functional Activity [1]	Ki [2] [nM]
Cc1ccc2cccc(OCc3c(Cl)ccc(N(C)C(=O)Cc4ccc(C(=O)CN5CCC(c6ccccc6)CC5)n4C)c3Cl)c2n1 [Compound 58, N-[2,4-Dichloro-3-(2-methyl-quinolin-8-yloxymethyl)-phenyl]-N-methyl-2-{1-methyl-5-[2-(4-phenyl-piperidin-1-yl)-acetyl]-1H-pyrrol-2-yl}-acetamide]	1	No effect	293
Cc1ccc2cccc(OCc3c(Cl)ccc(N(C)C(=O)CCc4ccc(C(=O)c5cccnc5)n4C)c3Cl)c2n1 [Compound 85]	65	Antagonist	15
CSc1ccc(C(=O)c2ccc(CC(=O)N(C)c3ccc(Cl)c(COc4cccc5ccc(C)nc45)c3Cl)n2C)cc1 [Compound 69]	41	Antagonist	109
Cc1ccc2cccc(OCc3c(Cl)ccc(N(C)C(=O)Cc4ccc(C(=O)c5ccc(C(=O)N(C)C)cc5)n4C)c3Cl)c2n1 [Compound 62, 4-[5-({[2,4-Dichloro-3-(2-methyl-quinolin-8-yloxymethyl)-phenyl]-methylcarbamoyl}-methyl)-1-methyl-1H-pyrrole-2-carbonyl]-N,N-dimethyl-benzamide]	59	Antagonist	204
Cc1ccc2cccc(OCc3c(Cl)ccc(N(C)C(=O)Cc4ccc(C(=O)c5ccc([N+](=O)[O-])c(C)c5)n4C)c3Cl)c2n1 [Compound 65, N-[2,4-Dichloro-3-(2-methyl-quinolin-8-yloxymethyl)-phenyl]-N-methyl-2-[1-methyl-5-(3-methyl-4-nitro-benzoyl)-1H-pyrrol-2-yl]-acetamide]	35	Antagonist	151
Cc1ccc2cccc(OCc3c(Cl)ccc(N(C)C(=O)Cc4ccc(C(=O)c5ccc(C#N)cc5)n4CCC(C)C)c3Cl)c2n1 [Compound 13]	1	No effect	44
Cc1ccc2cccc(OCc3c(Cl)ccc(N(C)C(=O)Cc4cc(C(=O)c5ccc(C#N)cc5)n(C)c4)c3Cl)c2n1 [Compound 4, 2-[5-(4-Cyano-benzoyl)-1-methyl-1H-pyrrol-3-yl]-N-[2,4-dichloro-3-(2-methyl-quinolin-8-yloxymethyl)-phenyl]-N-methyl-acetamide]	24	Antagonist	1350
COc1ccc(C(=O)c2ccc(CCC(=O)N(C)c3ccc(C)c(COc4cccc5ccc(C)nc45)c3C)s2)cc1 [Compound 106]	–	–	375
Cc1ccc2cccc(OCc3c(Cl)ccc(N(C)C(=O)Cc4ccc(C(=O)c5ccccc5)s4)c3Cl)c2n1 [Compound 109, 2-(5-Benzoyl-thiophen-2-yl)-N-[2,4-dichloro-3-(2-methyl-quinolin-8-yloxymethyl)-phenyl]-N-methyl-acetamide]	–	–	53
Cc1ccc2cccc(OCc3c(Cl)ccc(N(C)C(=O)Cc4ccc(C(=O)c5ccccn5)n4C)c3Cl)c2n1 [Compound 45]	–	–	579
Cc1ccc2cccc(OCc3c(Cl)ccc(N(C)C(=O)Cc4ccc(C(=O)c5ccc(C#N)cc5)[nH]4)c3Cl)c2n1 [Compound 6, 2-[5-(4-Cyano-benzoyl)-1 H-pyrrol-2-yl]-N-[2,4-dichloro-3-(2-methyl-quinolin-8-yloxymethyl)-phenyl]-N-methyl-acetamide]	–	–	41
Cc1ccc2cccc(OCc3c(Cl)ccc(N(C)C(=O)Cc4ccc(C(=O)c5ccccc5N)n4C)c3Cl)c2n1 [Compound 53]	–	–	393
Cc1ccc2cccc(OCc3c(Cl)ccc(N(C)C(=O)Cc4ccc(C(=O)c5cccc([N+](=O)[O-])c5)n4C)c3Cl)c2n1 [Compound 42]	–	–	688
CSc1ccc(C(=O)c2ccc(CC(=O)N(C)c3ccc(Cl)c(COc4cccc5ccc(C)nc45)c3Cl)n2C)s1 [Compound 43]	–	–	680
Cc1ccc2cccc(OCc3c(Cl)ccc(N(C)C(=O)Cc4ccc(C(=O)c5ccc(Cl)cc5)n4C)c3Cl)c2n1 [Compound 40]	–	–	752
CCCCCC(=O)c1ccc(CC(=O)N(C)c2ccc(Cl)c(COc3cccc4ccc(C)nc34)c2Cl)n1C [Compound 23, N-[2,4-Dichloro-3-(2-methyl-quinolin-8-yloxymethyl)-phenyl]-2-(5-hexanoyl-1-methyl-1H-pyrrol-2-yl)-N-methyl-acetamide]	–	–	5430
Cc1ccc2cccc(OCc3c(Cl)ccc(NC(=O)Cc4ccc(C(=O)c5ccc(C#N)cc5)n4C)c3Cl)c2n1 [Compound 15]	–	Weak antagonist	–
Cc1ccc2cccc(OCc3c(Cl)ccc(N(C)C(=O)Cc4ccc(C(=O)C5CC5)n4C)c3Cl)c2n1 [Compound 32]	–	–	1530
Cc1ccc2cccc(OCc3c(Cl)ccc(N(C)C(=O)Cc4ccc(C(=O)c5cnc(Cl)c(Cl)c5)n4C)c3Cl)c2n1 [Compound 52]	–	–	427
